Consider one compound from patent US20130324412A1, “N-ALKOXYAMIDES OF 6-(SUBSTITUTED PHENYL)-4-AMINOPICOLINATES AND 2-(SUBSTITUTED PHENYL)-6-AMINO-4-PYRIMIDINECARBOXYLATES AND THEIR USE AS SELECTIVE HERBICIDES FOR CROPS” (DOW AGROSCIENCES LLC, priority 2009, published 2013).

Type in all cases: in vivo
Experiment [1] concerns corn (Zea mays). In words: Postemergence herbicidal activity in corn, crop. As to conditions: visual rating after 21 d, probit analysis, dose to kill or control 20 percent. Here is the method: (§1) Seeds of corn and the desired weed species were planted in Sun Gro MetroMix 360 planting mixture, which typically has a pH of 6.0 to 6.8 and an organic matter content of about 30 percent, in plastic pots with a surface area of 95 cm^2. When required to ensure good germination and healthy plants, a fungicide treatment and/or other chemical or physical treatment was applied. The plants were grown for 7-21 d in a greenhouse with an approximate 15-h photoperiod which was maintained at about 23-29° C. during the day and 22-28° C. during the night. Nutrients and water were added on a regular basis and supplemental lighting was provided with overhead metal halide 1000-Watt lamps as necessary. The corn plants were utilized for testing when they reached the second true leaf stage. The weed species were utilized at the first or second true leaf stage.
(§2) A weighed amount, determined by the highest rate to be tested, of each test compound was dissolved in 4 mL of a 97:3 v/v mixture of acetone and DMSO to obtain concentrated stock solutions. […] The concentrated stock solutions obtained were diluted with 20 mL of an aqueous mixture containing acetone, water, isopropyl alcohol, DMSO, Atplus 411F crop oil concentrate, and Triton X-155 surfactant in a 48.5:39:10:1.5:1.0:0.02 v/v ratio to obtain spray solutions containing the highest application rates. […]
(§3) The treated plants and control plants were placed in a greenhouse as described above and watered by sub-irrigation to prevent wash-off of the test compounds. After 21 d, the condition of the test plants as compared with that of the untreated plants was determined visually and scored on a scale of 0 to 100 percent where 0 corresponds to no injury and 100 corresponds to complete kill. […]

Experiment [2] concerns lambsquarters (Chenopodium album). Nature of the experiment: General postemergence herbicidal activity, lambsquarters. As to conditions: post-emergence, 336 h, 140 g ai/ha, postemergence, after 14 d, 0 = no injury, 100 = complete kill, read-out: CHEAL % Visual Injury. A digest of the protocol:
(§4)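 Greenhouse plants at first to second true leaf stage sprayed overhead at 187 L/ha in acetone/DMSO with crop oil concentrate and surfactant, at a high rate plus ½× to 1/16× serial dilutions. Injury rated visually after 14 d against solvent-blank controls, 0 (none) to 100% (complete kill).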

In experiment [3] the test system is pigweed, redroot (Amaranthus retroflexus). Nature of the experiment: Postemergence herbicidal activity in corn, redroot pigweed. As to conditions: corn test, visual rating after 21 d, probit analysis, dose to kill or control 80 percent. Here is the method:
as §1, §2, §3

Experiment [4] relates to wild buckwheat (Polygonum convululus). In words: Postemergence herbicidal activity in corn, wild buckwheat. As to conditions: corn test, visual rating after 21 d, probit analysis, dose to kill or control 80 percent. Here is the method: as §1, §2, §3
The test system is the same in experiment [5]. Nature of the experiment: General postemergence herbicidal activity, wild buckwheat. As to conditions: post-emergence, 336 h, 140 g ai/ha, postemergence, after 14 d, 0 = no injury, 100 = complete kill, read-out: POLCO % Visual Injury. A digest of the protocol: as §4
For experiment [6], the system named is velvetleaf (Abutilon theophrasti). Nature of the experiment: General postemergence herbicidal activity, velvetleaf. Particulars: post-emergence, 336 h, 140 g ai/ha, postemergence, after 14 d, 0 = no injury, 100 = complete kill, read-out: ABUTH % Visual Injury. A digest of the protocol: as §4
Experiment [7] relates to sicklepod (Casia obtusifolia). In words: Postemergence herbicidal activity in corn, sicklepod. As to conditions: corn test, visual rating after 21 d, probit analysis, dose to kill or control 80 percent. Here is the method:
as §1, §2, §3

For experiment [8], the system named is corn (Zea mays). In words: General postemergence herbicidal activity, corn. Particulars: post-emergence, 336 h, 140 g ai/ha, postemergence, after 14 d, 0 = no injury, 100 = complete kill, read-out: ZEAMX % Visual Injury. A digest of the protocol:
as §4

The test system of experiment [9] is lambsquarters (Chenopodium album). Nature of the experiment: Postemergence herbicidal activity in corn, lambsquarters. Particulars: corn test, visual rating after 21 d, probit analysis, dose to kill or control 80 percent. Here is the method: as §1, §2, §3

Regarding `C=CCONC(=O)c1nc(-c2ccc(Cl)c(OC)c2F)cc(N)c1Cl` [Compound 3, N-(2-Propenyloxy)-4-amino-3-chloro-6-(4-chloro-2-fluoro-3-methoxyphenyl)picolinamide], the “ZEAMX GR20” value with corn (Zea mays) [1] is on record as >35 g ai/ha. For the same compound, the pest or weed control at 140 g/ha in experiment [2], in experiment [5] and in experiment [6] was 100% in each case. Moreover, the “AMARE GR80” value in [3] was determined as 5 g ai/ha. Moreover, the “POLCO GR80” value in experiment [4] is on record as <4 g ai/ha. Besides, in experiment [7], the “CASOB GR80” value was 5 g ai/ha. The plant injury at 140 g/ha in the experiment on corn (Zea mays) [8] was 0%. In [9], the “CHEAL GR80” value is <4 g ai/ha.
